On the set-up of experiment [1]: method as in PMID 35448805. The note with it: pure compounds, compared to ascorbic acid; cited from earlier work.
For experiment [2], the system named is Staphyloccocus aureus CCM 4223. In words: Agar well-diffusion method. Type of experiment: cell-based. The following applies: pure compound 0.57 mM.
The test system of experiment [3] is BJ-5ta. Briefly: Resazurin screening assay, 3D spheroids. The following applies: BJ-5ta (Skin Fibroblasts), non-cancerous, 72 h, secondary metabolites and cisplatin. It counts as cell-based, human. How it is done:
(§1) All experiments were performed in triplicate.
On the technique in general: Alamar Blue is a resazurin reagent that responds to reducing activity.

The test system of experiment [4] is A549. Briefly: Resazurin screening assay, 3D spheroids. It counts as cell-based, human. The note with it: A549 (Lung), 72 h, secondary metabolites and cisplatin. How it is done:
as §1

Experiment [5] has as its system BLM. In words: Resazurin screening assay, 3D spheroids. Type of experiment: cell-based, human. The note with it: BLM (Melanoma), 72 h, secondary metabolites and cisplatin. How it is done: as §1
Experiment [6] deals with HeLa. In words: Resazurin screening assay, 3D spheroids. It counts as cell-based, human. The note with it: HeLa (Cervix), 72 h, secondary metabolites and cisplatin. As for the experimental part:
as §1

In experiment [7] the test system is MDA-MB-231. In words: Resazurin screening assay, 3D spheroids. Type of experiment: cell-based, human. The following applies: MDA-MB-231 (Breast ER−), 72 h, secondary metabolites and cisplatin. How it is done:
as §1

Experiment [8] concerns MCF-7. Briefly: Resazurin screening assay, 3D spheroids. Type of experiment: cell-based, human. The following applies: MCF-7 (Breast ER+), 72 h, secondary metabolites and cisplatin. As for the experimental part:
as §1

For experiment [9], the system named is MCF-10A. In words: Resazurin screening assay, 3D spheroids. Type of experiment: cell-based, human. The following applies: MCF-10A (Breast Epithelial), non-cancerous, 72 h, secondary metabolites and cisplatin. As for the experimental part:
as §1

Experiment [10] has as its system HCT116. Briefly: Resazurin screening assay, 3D spheroids. The note with it: HCT116 (Colon), 72 h, secondary metabolites and cisplatin. It counts as cell-based, human. As for the experimental part:
as §1

Experiment [11] concerns Jurkat. Briefly: Resazurin screening assay, 3D spheroids. It counts as cell-based, human. The note with it: Jurkat (Leukemia), 72 h, secondary metabolites and cisplatin. How it is done: as §1
In experiment [12] the test system is A2780. In words: Resazurin screening assay, 3D spheroids. It counts as cell-based, human. The following applies: A2780 (Ovarian), 72 h, secondary metabolites and cisplatin. How it is done: as §1
Experiment [13] deals with BJ-5ta. In words: Resazurin screening assay, 2D culture. It counts as cell-based, human. The following applies: BJ-5ta (Skin Fibroblasts), non-cancerous, 72 h, secondary metabolites and cisplatin. As for the experimental part: as §1
Experiment [14] concerns A549. Briefly: Resazurin screening assay, 2D culture. Type of experiment: cell-based, human. The note with it: A549 (Lung), 72 h, secondary metabolites and cisplatin. How it is done: as §1
Experiment [15] concerns BLM. Briefly: Resazurin screening assay, 2D culture. The note with it: BLM (Melanoma), 72 h, secondary metabolites and cisplatin. It counts as cell-based, human. How it is done: as §1
Experiment [16] deals with HeLa. Briefly: Resazurin screening assay, 2D culture. It counts as cell-based, human. The following applies: HeLa (Cervix), 72 h, secondary metabolites and cisplatin. How it is done:
as §1

Experiment [17] has as its system MDA-MB-231. In words: Resazurin screening assay, 2D culture. The note with it: MDA-MB-231 (Breast ER−), 72 h, secondary metabolites and cisplatin. Type of experiment: cell-based, human. As for the experimental part:
as §1

The test system of experiment [18] is MCF-7. Briefly: Resazurin screening assay, 2D culture. It counts as cell-based, human. The note with it: MCF-7 (Breast ER+), 72 h, secondary metabolites and cisplatin. As for the experimental part: as §1
The subject of experiment [19] is MCF-10A. Briefly: Resazurin screening assay, 2D culture. It counts as cell-based, human. The note with it: MCF-10A (Breast Epithelial), non-cancerous, 72 h, secondary metabolites and cisplatin. As for the experimental part: as §1
Experiment [20] deals with HCT116. In words: Resazurin screening assay, 2D culture. Type of experiment: cell-based, human. The note with it: HCT116 (Colon), 72 h, secondary metabolites and cisplatin. How it is done:
as §1

Experiment [21] concerns A2780. In words: Resazurin screening assay, 2D culture. Type of experiment: cell-based, human. The note with it: A2780 (Ovarian), 72 h, secondary metabolites and cisplatin. How it is done:
as §1

Experiment [22] deals with Jurkat. In words: Resazurin screening assay, 2D suspension culture. It counts as cell-based, human. The following applies: Jurkat (Leukemia), 72 h, secondary metabolites and cisplatin. As for the experimental part:
as §1

Experiment [23] has as its system COS-7. Briefly: Resazurin screening assay, 2D culture. Type of experiment: cell-based. The note with it: COS-7 (Kidney Fibroblasts), non-cancerous, 72 h, secondary metabolites and cisplatin. As for the experimental part: as §1
Experiment [24] has as its system COS-7. In words: Resazurin screening assay, 3D spheroids. Type of experiment: cell-based. The following applies: COS-7 (Kidney Fibroblasts), non-cancerous, 72 h, secondary metabolites and cisplatin. How it is done: as §1
Experiment [25] is described as follows: DPPH radical scavenging assay. The note with it: 30 min, absorbance 517 nm. How it is done: The free radical scavenging activity of lichen extracts was measured using 1,1-diphenyl-2-picryl-hydrazil (DPPH). The antioxidant activity via this method is described in several studies and here it is slightly modified. The extracts were dissolved in a small amount of pure DMSO and then filled with distilled water to a concentration of 1 mg/mL. In addition, 10 μL of 5% NaOH solution was added to help dissolve the extracts fully. Stock solutions were subsequently diluted to the desired concentrations. The reaction mixture consisted of 2 mL of DPPH methanolic solution (0.1 mM) and 1 mL of our extracts to reach a final volume of 3 mL. The samples were incubated at laboratory temperature in the dark for 30 min. After the incubation, the absorbance of the samples was measured at 517 nm in a spectrophotometer (multi-detection microplate reader; Synergy HT, BioTek, Winooski, VT, USA). Ascorbic acid was used as positive control. A solution of 5% DMSO (1 mL) in MeOH (2 mL) was used as a blank control. The DPPH radical concentration was calculated by the equation:Free radical scavenging activity (%) = [(A0 − A1)/A)] × 100(2) where A0 was the absorbance of negative control and A1 was the absorbance of the reaction mixture of our samples.
For orientation: DPPH is a stable violet radical that fades when it is reduced.

SMILES strings stand for the structures. pIC50: −log10 of the molar value.

As a reminder, the pIC50 is −log10 of the IC50, conventionally taken in molar units.

For the molecule `CCCCCC(=O)Cc1cc(O)cc2c1C(=O)Oc1cc(O)c(C(=O)O)c(CCCCC)c1O2` [Phy, physodic acid], the “free radical scavenging activity in DPPH assay (in words)” value (shortened to “free radical scavenging activity”) in experiment [1] was “None of the tested compounds showed notable free radical scavenging activity”. Also, the “effectiveness among the chosen secondary metabolites (in words)” value in [2] is listed as “most effective”. Moreover, the “% RIZD S. aureus” value in experiment [2] (relative inhibition zone diameter vs gentamicin 50 µg/mL) is 118.78%.

Turning to `COc1cc(C)c(C(=O)Oc2cc(C)c(C(=O)O)c(O)c2)c(O)c1` [EA, evernic acid], the “free radical scavenging activity” value in experiment [1] is given as “None of the tested compounds showed notable free radical scavenging activity”.

Take `N.N.[Cl][Pt][Cl]` [CisPt, cisplatin]: the pIC50 in the experiment with BJ-5ta [3] is 3.73; with A549 [4], 3.92; with BLM [5] it was 4.05; with HeLa [6], 4.11; in the experiment on MDA-MB-231 [7], 4.12; in the experiment with MCF-7 [8], 4.11. Further, the pIC50 in the experiment on MCF-10A [9] is 3.92; in the experiment on HCT116 [10], 4.01; with Jurkat [11], 5.17; with A2780 [12] it was 3.87; with BJ-5ta [13], 4.42; with A549 [14] it was 4.63. Also, the pIC50 is 4.53 in the experiment with BLM [15]; 4.45 with HeLa [16]; 5.15 with MDA-MB-231 [17]; 4.53 with MCF-7 [18]; 4.59 with MCF-10A [19]; 5.13 in the experiment with HCT116 [20]. Also, the pIC50 was 5.03 with A2780 [21], 5.20 in the experiment with Jurkat [22], 4.61 with COS-7 [23] and 3.81 in the experiment on COS-7 [24].

Take `COC(=O)c1c(C)cc(OC(=O)c2c(C)cc(O)c(C=O)c2O)c(C)c1O` [A, atranorin]: the “free radical scavenging activity” value in experiment [1] is “None of the tested compounds showed notable free radical scavenging activity”.

Turning to `Cc1cc(OC(=O)c2c(C)cc(OC(=O)c3c(C)cc(O)cc3O)cc2O)cc(O)c1C(=O)O` [GA, gyrophoric acid], the “free radical scavenging activity” value in experiment [1] was “None of the tested compounds showed notable free radical scavenging activity”.

Turning to `O=C1O[C@H]([C@@H](O)CO)C(O)=C1O` [Ascorbic acid], the “IC50 by DPPH radical scavenging assay” value in experiment [25] is listed as 7.7 ± 0.4 µg/mL.

The values are drawn from PMC9919983, “Screening Evaluation of Antiproliferative, Antimicrobial and Antioxidant Activity of Lichen Extracts and Secondary Metabolites In Vitro” (Plants, 2023).
